Reference: patent publication US7834011B2, “Heterocyclylalkyl derivatives as novel inhibitors of histone deacetylase” (Janssen Pharmaceutica N.V., priority 2006, dated 2010)
≈ marks a conversion by molar mass, not a printed value.

Columns and labels:
[1] = tested on: A2780 ovarian carcinoma cells; assay: Antiproliferative activity on A2780 cells (MTT); assay type: cell-based; settings: Homo sapiens, 96 h, four days of incubation, read-out: Cellular activity pIC50 C.2 (converted)
Procedure: Cellular activity of the compounds of formula (I) was determined on A2780 tumour cells using a colorimetric assay for cell toxicity or survival (Mosmann Tim, Journal of Immunological Methods 65: 55-63, 1983)(see example C.2).
All compounds tested were dissolved in DMSO and further dilutions were made in culture medium. Final DMSO concentrations never exceeded 0.1% (v/v) in cell proliferation assays. Controls contained A2780 cells and DMSO without compound and blanks contained DMSO but no cells. MTT was dissolved at 5 mg/ml in PBS. A glycine buffer comprised of 0.1 M glycine and 0.1 M NaCl buffered to pH 10.5 with NaOH (1 N) was prepared (all reagents were from Merck).
The human A2780 ovarian carcinoma cells (a kind gift from Dr. T. C. Hamilton [Fox Chase Cancer Centre, Pennsylvania, USA]) were cultured in RPMI 1640 medium supplemented with 2 mM L-glutamine, 50 μg/ml gentamicin and 10% fetal calf serum. Cells were routinely kept as monolayer cultures at 37° C. in a humidified 5% CO2 atmosphere. Cells were passaged once a week using a trypsin/EDTA solution at a split ratio of 1:40. All media and supplements were obtained from Life Technologies. Cells were free of mycoplasma contamination as determined using the Gen-Probe Mycoplasma Tissue Culture kit (supplier: BioMérieux).
Cells were seeded in NUNC™ 96-well culture plates (Supplier: Life Technologies) and allowed to adhere to the plastic overnight. Densities used for plating were 1500 cells per well in a total volume of 200 μl medium. After cell adhesion to the plates, medium was changed and drugs and/or solvents were added to a final volume of 200 μl. Following four days of incubation, medium was replaced by 200 μl fresh medium and cell density and viability was assessed using an MTT-based assay. To each well, 25 μl MTT solution was added and the cells were further incubated for 2 hours at 37° C. The medium was then carefully aspirated and the blue MTT-formazan product was solubilized by addition of 25 μl glycine buffer followed by 100 μl of DMSO. […] Within an experiment, the results for each experimental condition are the mean of 3 replicate wells. For initial screening purposes, compounds were tested at a single fixed concentration of 10^−6 M. For active compounds, the experiments were repeated to establish full concentration-response curves. For each experiment, controls (containing no drug) and a blank incubation (containing no cells or drugs) were run in parallel. The blank value was subtracted from all control and sample values. For each sample, the mean value for cell growth (in absorbance units) was expressed as a percentage of the mean value for cell growth of the control. […] Herein the effects of test compounds are expressed as pIC50 (the negative log value of the IC50-value)(see Table F-2).

[2] = biological target: histone deacetylase (HeLa nuclear extracts); assay: In vitro assay for inhibition of histone deacetylase with fluorescent-labelled substrate (Fluor de Lys); assay type: biochemical
Source text: The in vitro assay for inhibition of histone deacetylase (see example C.1) measures the inhibition of HDAC enzymatic activity obtained with the compounds of formula (I).
The HDAC Fluorescent Activity Assay/Drug Discovery Kit of Biomol (cat. No: AK-500-0001) was used. The HDAC Fluorescent Activity Assay is based on the Fluor de Lys (Fluorogenic Histone deAcetylase Lysyl) substrate and developer combination. The Fluor de Lys substrate, comprises an acetylated lysine side chain. Deacetylation of the substrate sensitizes the substrate so that, in the second step, treatment with the Fluor de Lys developer produces a fluorophore.
HeLa nuclear extracts (supplier: Biomol) were incubated at 60 μg/ml with 75 μM of substrate. The Fluor de Lys substrate was added in a buffer containing 25 mM Tris, 137 mM NaCl, 2.7 mM KCl and 1 mM MgCl2.6H2O at pH 7.4. After 30 min, 1 volume of the developer was added. The fluorophore was excited with 355 nm light and the emitted light (450 nm) was be detected on a fluorometric plate reader.
For each experiment, controls (containing HeLa nuclear extract and buffer), a blank incubation (containing buffer but no HeLa nuclear extract) and samples (containing compound dissolved in DMSO and further diluted in buffer and HeLa nuclear extract) were run in parallel. In first instance, compounds were tested at a concentration of 10^−5M. […] All sample were tested 4 times. In each test the blank value was subtracted from both the control and the sample values. The control sample represented 100% of substrate deactylation. For each sample the fluorescence was expressed as a percentage of the mean value of the controls. […] Herein the effects of test compounds are expressed as pIC50 (the negative log value of the IC50-value) (see Table F-2).

[3] = Solubility at pH 2.3 (chemiluminescent nitrogen detector); assay type: physicochemical; settings: pH 2.3, aqueous buffer; read-out: Solubility C.3.c. pH = 2.3
Source text: In a third method the solubility of a compound at different pH's can be measured with the use of a Chemiluminescent Nitrogen Detector (see example C.3.c).
The solubility of a compound, at pH 2.3, can also be measured with the use of a chemiluminescent nitrogen detector (see Table F-2).

SMILES	melting point [°C]	IC50 [1] [nM]	Enzymatic activity pIC50 C.1 [2]	solubility [3] [µg/mL]
Cn1nc(CNCC2CN(c3ncc(C(=O)NO)cn3)CCO2)c2ccccc21 (stereo not shown) [Compound 4]	193	200	7.8	
Cn1nc(CNCC2CN(c3ncc(C(=O)Nc4ccccc4N)cn3)CCO2)c2ccccc21 (stereo not shown) [Compound 5]	152			
Cn1nc(CN2CCN(c3ccc(C(=O)Nc4ccccc4N)cn3)CC2)c2ccccc21 [Compound 6]	219			
Cn1nnc2cc(COCC3CCN(c4ncc(C(=O)NO)cn4)CC3)ccc21 [Compound 7]	197	200	7.8	
O=C(NO)c1cnc(N2CCC(CNCc3nc4ccccc4s3)CC2)nc1 [Compound 8]	208	100	8.2	2500 (≈ 6.27 mM)
CCN(Cc1ccc2c(c1)nnn2C)CC1CCN(c2ncc(C(=O)NO)cn2)CC1 [Compound 9]	168	200	8.3	2400 (≈ 5.65 mM)
CCN(Cc1ccc2nnn(C)c2c1)CC1CCN(c2ncc(C(=O)NO)cn2)CC1 [Compound 10]	110	50.1	8.7	2700 (≈ 6.36 mM)
Cn1nnc2cc(CN(CC3CCN(c4ncc(C(=O)NO)cn4)CC3)C(=O)NO)ccc21 [Compound 11]	130	794	8.5	
Cn1nnc2ccc(CN(CC3CCN(c4ncc(C(=O)NO)cn4)CC3)S(C)(=O)=O)cc21 [Compound 12]	260	1260	7.8	< 10
CCC(=O)N(Cc1nn(C)c2ccccc12)CC1CCN(c2ncc(C(=O)NO)cn2)CC1 [Compound 13]	199	251	7.6	< 10
Cn1nc(CN2CCN(c3ccc(C(=O)NO)cn3)CC2)c2ccccc21 [Compound 14]		158	7.5	
Cn1cc(CNCC2CCN(c3ncc(C(=O)NO)cn3)CC2)c2cccnc21 [Compound 15]		39.8	8.2	
Cn1nc(CNCC2CCN(c3ccc(C(=O)NO)cn3)CC2)c2ccccc21 [Compound 16]		100	7.5	
CCCn1nc(CNCC2CCN(c3ncc(C(=O)NO)cn3)CC2)c2ccccc21 [Compound 17]		31.6	9.0	3800 (≈ 8.97 mM)
CC(C)n1nnc2cc(CNCC3CCN(c4ncc(C(=O)NO)cn4)CC3)ccc21 [Compound 18]		158	7.6	
Cn1nc2ccccc2c1CNCC1CCN(c2ncc(C(=O)NO)cn2)CC1 [Compound 19]		1580	8.1	2500 (≈ 6.32 mM)
Cn1nnc2cc(CNCC3CCN(c4ncc(C(=O)NO)cn4)CC3)ccc21 [Compound 20]		158	7.8	2500 (≈ 6.31 mM)
CC(=O)N(Cc1nc2ccccc2n1C)CC1CCN(c2ncc(C(=O)NO)cn2)CC1 [Compound 21]		794	7.5	1900 (≈ 4.34 mM)
Cc1nc2ccc(CNCC3CCN(c4ncc(C(=O)NO)cn4)CC3)cc2[nH]1 [Compound 23]		1000	8.0	
CCN(Cc1ccc2c(c1)nnn2C(C)C)CC1CCN(c2ncc(C(=O)NO)cn2)CC1 [Compound 24]		50.1	8.4	4600 (≈ 10.2 mM)
Cn1nnc2cc(CN(CC#N)CC3CCN(c4ncc(C(=O)NO)cn4)CC3)ccc21 [Compound 25]		126	7.7	
CC(=O)N(Cc1ccc2c(c1)nnn2C)CC1CCN(c2ncc(C(=O)NO)cn2)CC1 [Compound 26]		1580	7.4	
CCC(=O)N(Cc1ccc2nnn(C)c2c1)CC1CCN(c2ncc(C(=O)NO)cn2)CC1 [Compound 27]		2000	6.9	< 10
CCCn1nc(CN(CC2CCN(c3ncc(C(=O)NO)cn3)CC2)C(=O)CC)c2ccccc21 [Compound 28]		251	7.4	10 (≈ 0.0209 mM)
CC(=O)N(Cc1ccc2c(c1)nnn2C(C)C)CC1CCN(c2ncc(C(=O)NO)cn2)CC1 [Compound 29]		794	7.2	400 (≈ 0.857 mM)
CCCn1nc(CN2CCN(c3ccc(C(=O)Nc4cc(-c5cccs5)ccc4N)cn3)CC2)c2ccccc21 [Compound 31]	138			
